According to article PMC11665553, “12-Lipoxygenase inhibition delays onset of autoimmune diabetes in human gene replacement mice” (JCI Insight, 2024):
“And” between values parts separate entries of the source, which are not always exact repeats. Equal values may be shown once. “Also recorded” adds a separate entry of the source.

How the values were obtained:
human islets = system: human islets; parameters: method as in PMID 28609824; settings: cited from earlier work
[1] = Pharmacokinetics after single p.o. dose in NOD.ShiLt/J mice (plasma LC-MS/MS); type: in vivo, mouse; settings: 30 mg/kg p.o., mean ± SD
Text: The NOD mouse model is a model of T1D that recapitulates many of the immune and β cell features of the disease ([20]). […] To address this question, we introgressed humanized hALOX12 mice onto the NOD background using a speed congenics approach. […] We next measured human 12-LOX protein levels in the NOD.hALOX12 mice.

NOD.hALOX12 mice [2] = assay: Flow cytometry of pancreatic lymph nodes and spleen of NOD.hALOX12 mice; type: in vivo, mouse; parameters: FoxP3 / CD4 / IFNg / IL-17a: unit not given here; settings: for CD4 / FoxP3 / IFNg / IL-17a: flow cytometry, individual animals, listed as VLX
Description: Spleen and pLNs were harvested, homogenized, and passed through a 70 μm strainer to obtain a single-cell suspension. Cell pellets were resuspended in red blood cell (RBC) lysing solution to remove red blood cells. […] The following surface markers were used — CD4-FITC (BioLegend, 100510; 1:100), CD8–PerCP-Cy5.5 (BioLegend, 100734; 1:100), and CD19-AF700 (BioLegend, 152414; 1:100). Following incubation of surface antibodies, cells were washed with stain buffer and then permeabilized using fix/perm buffer (BD Biosciences, 554722) before intracellular staining. The following intracellular antibodies from BD Biosciences were used: FoxP3-AF647 (560401; 1:100), IFN-γ–PE (554412; 1:50), and IL-17a–APCCY7 (560821; 1:50). Cells were analyzed on the Attune NxT Flow Cytometer (Thermo Fisher Scientific). Data were analyzed by FlowJo software (BD Biosciences).

NOD.hALOX12 mice [3] = assay: Diabetes treatment (reversal) in diabetic female NOD.hALOX12 mice; type: in vivo, mouse; settings: 30 mg/kg/day p.o. up to 6 weeks
Description: Mice were followed for diabetes development (blood glucose ≥250 mg/dL on 2 consecutive days) until 25 weeks of age (Figure 3A).
For diabetes treatment studies, female NOD.hALOX12 mice were followed for random-fed blood glucose from 12 to 20 weeks of age.

NOD.hALOX12 mice [4] = assay: NanoString spatial proteomics of insulitic and insulin-positive areas in NOD.hALOX12 mice; type: in vivo, mouse; settings: Insulitic Area; Fig 2F source data, individual values
NOD.hALOX12 mice [5] = assay: as above; type: in vivo, mouse
Text: To specifically interrogate the nature of immune cells within the insulitic region, we performed spatial tissue-based proteomics (NanoString). We used insulin immunostaining and nuclei staining to identify β cells and the surrounding insulitic regions. Prevalidated antibodies in the GeoMx mouse immune panel were used to probe for immune cell subtypes in the peri-islet insulitic region and within the islet. […] This reduction in myeloid cell populations was accompanied by a decrease in T and B cells populations, including CD4^+, CD3^+, CD8^+, and CD19^+ cells (Figure 2F and Supplemental Figure 2, A and B). […] Enhanced PD-L1/PD-1 interactions shift T cells to less aggressive, more regulatory phenotypes ([21]).
Paraffin embedded pancreata were used for NanoString spatial proteomics analysis. Tissues were stained with morphology markers: AF-647–conjugated insulin (Cell Signaling Technology, 9008s; 1:400) and nuclei marker (SYTO13). Tissues were hybridized using a pre-validated mouse GeoMx Immune cell panel (NanoString, GMX-PROCONCT-MICP) comprising the following markers: PD-1, CD11c, CD8a, PanCk, MHC II, CD19, CTLA4, SMA, CD11b, CD3e, fibronectin, Ki-67, CD4, GZMB, F4/80, CD45, PD-L1; housekeeping genes: histone H3, S6, GAPDH; and IgG antibodies: Rb IgG, Rat IgG2a, and Rat IgG2b for background subtraction. All markers were conjugated to unique UV-photocleavable oligos for indexing. At least 5 or 6 islets with insulitis were chosen as regions of interest (ROIs) per mouse based on the morphology markers (insulin and nuclei). The ROIs were segmented into insulitic region and insulin^+ region for each islet. Oligonucleotides from the segmented ROIs were photocleaved, collected in a 96-well plate, and reads were counted using nCounter (NanoString). Scaling was performed to normalize for any differences in tissue surface area and depth. After scaling, reads were normalized to housekeeping markers and background was subtracted using IgG markers.

12-LOX products = assay: Serum lipidomics (LC-MS/MS) of 12-LOX and non-12-LOX products in NOD.hALOX12 mice; type: in vivo, mouse
Description: Lipidomics analysis (by LC-MS/MS) was performed for a series of 12-LOX products resulting from different fatty acid substrates (Figure 2A).

[6] = female NOD.hALOX12 mice, 30 mg/kg p.o., 4 weeks
[7] = Insulitic Area, Fig 2F source data, individual values
[8] = sheet SFig 2A, individual regions of interest
[9] = female NOD.hALOX12 mice, 30 mg/kg p.o., 1 week
[10] = serum, individual animals, listed as VLX

Compound: COc1cccc(CNc2ccc(S(=O)(=O)Nc3nc4ccccc4s3)cc2)c1O [VLX-1005]
- Cytotoxicity in human islets (human islets): without evidence of cytotoxicity
- Effect on function of cytokine-treated human islets in vitro (human islets; proinflammatory cytokines): efficacy in reversing the insulin secretory defects; also recorded: protect human islets in vitro against dysfunction caused by proinflammatory cytokines
- AUClast/D ([1]; dose-normalized): 440 ± 54 ng·h/mL
- AUC%extrap_obs [1]: 0.115 ± 0.099%
- AUC(0-inf) ([1]; mouse, plasma, po): 13200 ng·h/mL
- AUC(0-t) ([1]; mouse, plasma, po): 13200 ng·h/mL
- Cmax ([1]; mouse, plasma, po): 14300 ng/mL
- half-life ([1]; mouse, plasma, po): 2.53 ± 0.41 h
- MRT inf ([1]; mouse, plasma, po, read-out: MRTinf_obs): 3.81 ± 0.71 h
- CD4+Foxp3+ regulatory T cells in pancreatic lymph nodes (NOD.hALOX12 mice [2]; [6]): increase
- Tregs in spleen (NOD.hALOX12 mice [2]; [6]): no changes
- CD4 (NOD.hALOX12 mice [2]; sheet SFig 2C): 65.7 and 58.8 and 61.4 and 58 and 54.2
- FoxP3 (NOD.hALOX12 mice [2]; sheet SFig 2C): 4.31 and 7.46 and 5.24 and 7.28 and 5.6
- IFNg (NOD.hALOX12 mice [2]; sheet SFig 2C): 0.037 and 0.092 and 0.047 and 0.058 and 0.044
- IL-17a (NOD.hALOX12 mice [2]; sheet SFig 2C): 2.96 and 5.74 and 6.17 and 6.96 and 7.02
- CD4 (NOD.hALOX12 mice [2]; sheet SFig 2D): 46.2 and 45.1 and 46.1 and 45.5 and 43.7
- FoxP3 (NOD.hALOX12 mice [2]; sheet SFig 2D): 8.7 and 7.15 and 4.07 and 12.1 and 9.49
- IFNg (NOD.hALOX12 mice [2]; sheet SFig 2D): 0.36 and 0.33 and 0.39 and 0.29 and 0.4
- IL-17a (NOD.hALOX12 mice [2]; sheet SFig 2D): 3.2
- Blood glucose levels vs vehicle in established diabetes (NOD.hALOX12 mice [3]): relative reductions in blood glucose levels
- Reversal of established diabetes (NOD.hALOX12 mice [3]): did not observe a reversal in diabetes
- CD19 (NOD.hALOX12 mice [4]): 0.1873 and -0.4029 and 0.4865 and 2.831 and -0.3159 and 0.2718 and 0.8536 and 0.6292 and 1.249 and 2.864
- CD11b (NOD.hALOX12 mice [5]; [7]): 5.147 and 5.277 and 5.327 and 5.94 and 5.07 and 5.565 and 5.634 and 5.068 and 4.855 and 6.029
- CD11c (NOD.hALOX12 mice [5]; [7]): 2.876 and 1.502 and 2.598 and 4.232 and 2.537 and 2.93 and 3.146 and 2.8254 and 2.641 and 4.743
- CD45 (first CD45 row) (NOD.hALOX12 mice [5]; [7]): 5.25 and 3.49 and 3.636 and 8.487 and 3.645 and 3.942 and 4.828 and 3.892 and 3.054 and 8.111
- CD45 (second CD45 row) (NOD.hALOX12 mice [5]; [7]): -0.2135 and 0.0264 and 0.3853 and 4.031 and -1.253 and 0.3826 and 0.2212 and -1.155 and 0.06453 and 3.867
- CTLA4 (NOD.hALOX12 mice [5]; [7]): 1.939 and 2.368 and 2.417 and 1.307 and 2.276 and 2.4212 and 3.583 and 2.587 and 3.2171 and 2.563
- F4/80 (NOD.hALOX12 mice [5]; [7]): 0.2536 and 0.7983 and 1.224 and 1.023 and -0.1728 and 1.356 and 2.254 and 0.8327 and -0.1455 and 1.282
- GZMB (NOD.hALOX12 mice [5]; [7]): 4.352 and 4.4072 and 5.2506 and 2.9798 and 5.432 and 6.733 and 6.076 and 5.882 and 4.529 and 3.344
- MHC II (NOD.hALOX12 mice [5]; [7]): -0.6174 and 1.207 and 0.8883 and -0.3662 and -0.4066 and -0.144 and -0.3371 and 1.073 and -0.07508 and -1.247
- PD-1 (NOD.hALOX12 mice [5]; [7]): -0.3236 and 0.1793 and 1.041 and 1.538 and -1.244 and -0.5413 and -0.07496 and 0.52 and -0.1742 and 0.5415
- PD-L1 (NOD.hALOX12 mice [5]; [7]): 1.897 and 1.722 and 1.56 and 0.2193 and 1.6509 and 2.371 and 2.045 and 2.4831 and 1.059 and 0.2909
- Myeloid population subtypes (macrophages, dendritic cells) in insulitic and islet areas (NOD.hALOX12 mice [5]; [6]): notable reduction
- PD-L1 levels (spatial proteomics) (NOD.hALOX12 mice [5]; [6]): increased levels
- T and B cell populations (CD4+, CD3+, CD8+, CD19+) in insulitic and islet areas (NOD.hALOX12 mice [5]; [6]): decrease
- CD4 (NOD.hALOX12 mice [5]; [8]): 0.3826 and 0.2212 and -1.155 and 0.06453 and 3.867 and -0.2135 and 0.0264 and 0.3853 and 4.031 and -1.253
- CD8 (NOD.hALOX12 mice [5]; [8]): 1.856 and 1.666 and 1.577 and 1.141 and 2.8916 and 1.46 and 1.4593 and 2.166 and 2.266 and 1.44
- CD11b (NOD.hALOX12 mice [5]; [8]): 5.565 and 5.634 and 5.068 and 4.855 and 6.029 and 5.147 and 5.277 and 5.327 and 5.94 and 5.07
- CD11c (NOD.hALOX12 mice [5]; [8]): 2.93 and 3.146 and 2.8254 and 2.641 and 4.743 and 2.876 and 1.502 and 2.598 and 4.232 and 2.537
- CD19 (NOD.hALOX12 mice [5]; [8]): 0.2718 and 0.8536 and 0.6292 and 1.249 and 2.864 and 0.1873 and -0.4029 and 0.4865 and 2.831 and -0.3159
- CD-3e (NOD.hALOX12 mice [5]; [8]): 4.049 and 3.547 and 4.013 and 3.889 and 3.319 and 3.27 and 3.43 and 3.812 and 3.482 and 3.738
- CTLA4 (NOD.hALOX12 mice [5]; [8]): 2.4212 and 3.583 and 2.587 and 3.2171 and 2.563 and 1.939 and 2.368 and 2.417 and 1.307 and 2.276
- F4/80 (NOD.hALOX12 mice [5]; [8]): 1.356 and 2.254 and 0.8327 and -0.1455 and 1.282 and 0.2536 and 0.7983 and 1.224 and 1.023 and -0.1728
- GZMB (NOD.hALOX12 mice [5]; [8]): 6.733 and 6.076 and 5.882 and 4.529 and 3.344 and 4.352 and 4.4072 and 5.2506 and 2.9798 and 5.432
- PD-1 (NOD.hALOX12 mice [5]; [8]): -0.5413 and -0.07496 and 0.52 and -0.1742 and 0.5415 and -0.3236 and 0.1793 and 1.041 and 1.538 and -1.244
- PD-L1 (NOD.hALOX12 mice [5]; [8]): 2.371 and 2.045 and 2.4831 and 1.059 and 0.2909 and 1.897 and 1.722 and 1.56 and 0.2193 and 1.6509
- Ki67 (NOD.hALOX12 mice [5]; sheet SFig 2B, individual regions of interest): 1.4 and 1.3004
- Serum 12-HEPE level vs vehicle (12-LOX products; [9]): not significantly changed
- Serum 12-HETE level vs vehicle (12-LOX products; [9]): significantly reduced
- Serum 13-HODE level vs vehicle (12-LOX products; [9]): significantly reduced
- Serum 14-HDHA level vs vehicle (12-LOX products; [9]): significantly reduced
- Serum 17-HDHA level vs vehicle (12-LOX products; [9]): significantly reduced
- 12-HEPE (Fig 2B) (12-LOX products; [10]): 14.181 and 5.614 and 0.079 and 3.392 and 10.786
- 12-HETE (Fig 2B) (12-LOX products; [10]): 1108.62 and 574.602 and 13.903 and 321.764 and 853.064
- 13(S)-HODE (Fig 2B) (12-LOX products; [10]): 213.641 and 75.17 and 53.113 and 81.494 and 90.355
- 14-HDHA (Fig 2B) (12-LOX products; [10]): 76.057 and 30.285 and 4.719 and 24.172 and 46.818
- 15-HETE (Fig 2B) (12-LOX products; [10]): 21.905 and 9.387 and 6.557 and 15.336 and 15.324
- 17-HDHA (Fig 2B) (12-LOX products; [10]): 7.358 and 2.244 and 2.092 and 3.507 and 3.423
